From patent US20230085307A1, “PYRIDAZINONE COMPOUND AND HERBICIDE” (NISSAN CHEMICAL CORPORATION, priority 2019, published 2023)

tested on: redroot pigweed; assay: Test Example 5: herbicidal effect by foliage application, plastic box (Table 20, symbol N); type: in vivo, redroot pigweed (Amaranthus retroflexus); conditions: foliage application, AAH 320 g/ha, three weeks after application
Procedure, shortened: (§1)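 Post-emergence foliar test in sterilized diluvial soil. Compound applied as water-diluted emulsion at a predetermined rate to 14-day-old plants; evaluation at three weeks.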

Row | SMILES | N: redroot pigweed, herbicidal effect
1 | CCCC(=O)Oc1c(C)nn(C)c(=O)c1-c1c(-c2ccc3c(c2)OCCO3)sc2ccccc12 [1-090] | 0 (Herbicidal rate of 5% or less (almost no effect))
2 | COC(=O)Oc1c(C)nn(C)c(=O)c1-c1c(-c2ccc3c(c2)OCCO3)sc2ccccc12 [1-091] | 5 (Herbicidal rate of 90% or more (almost completely withered))

tested on: Japanese bulrush; assay: Test Example 1: herbicidal activity, application before weed generation under submerged conditions (Table 16, symbol B); type: in vivo, Japanese bulrush (Schoenoplectus juncoides); conditions: 320 g/ha applied herbicide
Procedure, shortened: (§2)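 Alluvial soil was flooded to 4 cm depth, weed seeds were sown mixed and 2.5-leaf rice seedlings were transplanted. On sowing day, the compound's emulsion, diluted in water to a set dose, was applied to the water surface. Plants grew at 25–30 °C and were scored 0–5 after three weeks.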

Row | SMILES | Herbicidal effect on B: Japanese bulrush (grade 0-5)
3 | CCCC(=O)Oc1c(C)nn(C)c(=O)c1-c1c(-c2ccc3c(c2)OCCO3)sc2ccccc12 [1-090] | 4 (Herbicidal rate of 70% or more and less than 90%)
4 | COC(=O)Oc1c(C)nn(C)c(=O)c1-c1c(-c2ccc3c(c2)OCCO3)sc2ccccc12 [1-091] | 4 (Herbicidal rate of 70% or more and less than 90%)

tested on: chickweed; assay: Test Example 4: herbicidal effect by soil treatment (Table 19, symbol P); type: in vivo, common chickweed (Stellaria media); conditions: amount of applied herbicide 320 g/ha
Procedure, shortened: (§3)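 Scoring uses the grading scale of an earlier test, three weeks post-application. Treatment consists of spraying a diluted emulsion formulation across the surface of sterilized diluvial soil in which seeds are buried near 1.5 cm deep; boxes are kept in a greenhouse between 25° C. and 30° C.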

Row | SMILES | herbicidal effect rating, P: chickweed
5 | CCCC(=O)Oc1c(C)nn(C)c(=O)c1-c1c(-c2ccc3c(c2)OCCO3)sc2ccccc12 [1-090] | 4 (Herbicidal rate of 70% or more and less than 90%)
6 | COC(=O)Oc1c(C)nn(C)c(=O)c1-c1c(-c2ccc3c(c2)OCCO3)sc2ccccc12 [1-091] | 5 (Herbicidal rate of 90% or more (almost completely withered))

tested on: Chinese sprangletop; assay: Test Example 3: herbicidal effect by foliage application, Wagner pot (Table 18, symbol D); type: in vivo, chinese sprangletop (Leptochloa chinensis); conditions: 320 g/ha
Procedure, shortened: (§4)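 Plants were sown in alluvial soil held under 0.1–0.5 cm standing water and grown 14 days in a greenhouse at 25–30 °C. An emulsifiable formulation, water-diluted to the set dose, was then sprayed onto the foliage, and effects were scored three weeks later using previously defined criteria.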

Row | SMILES | herbicidal effect on D (Chinese sprangletop), rating 0-5
7 | CCCC(=O)Oc1c(C)nn(C)c(=O)c1-c1c(-c2ccc3c(c2)OCCO3)sc2ccccc12 [1-090] | 1 (Herbicidal rate of 5% or more and less than 20%)
8 | COC(=O)Oc1c(C)nn(C)c(=O)c1-c1c(-c2ccc3c(c2)OCCO3)sc2ccccc12 [1-091] | 1 (Herbicidal rate of 5% or more and less than 20%)

tested on: southern crabgrass; assay: Test Example 5: herbicidal effect by foliage application, plastic box (Table 20, symbol F); type: in vivo, southern crabgrass (Digitaria ciliaris); conditions: foliage application, AAH 320 g/ha, three weeks after application
Procedure, shortened: as §1

Row | SMILES | F: southern crabgrass, herbicidal effect
9 | CCCC(=O)Oc1c(C)nn(C)c(=O)c1-c1c(-c2ccc3c(c2)OCCO3)sc2ccccc12 [1-090] | 3 (Herbicidal rate of 40% or more and less than 70%)
10 | COC(=O)Oc1c(C)nn(C)c(=O)c1-c1c(-c2ccc3c(c2)OCCO3)sc2ccccc12 [1-091] | 5 (Herbicidal rate of 90% or more (almost completely withered))

tested on: lambsquarters; assay: Test Example 4: herbicidal effect by soil treatment (Table 19, symbol O); type: in vivo, lambsquarters (Chenopodium album); conditions: amount of applied herbicide 320 g/ha
Procedure, shortened: as §3

Row | SMILES | herbicidal effect rating, O: lambsquarters
11 | CCCC(=O)Oc1c(C)nn(C)c(=O)c1-c1c(-c2ccc3c(c2)OCCO3)sc2ccccc12 [1-090] | 2 (Herbicidal rate of 20% or more and less than 40%)
12 | COC(=O)Oc1c(C)nn(C)c(=O)c1-c1c(-c2ccc3c(c2)OCCO3)sc2ccccc12 [1-091] | 4 (Herbicidal rate of 70% or more and less than 90%)

tested on: chickweed; assay: Test Example 5: herbicidal effect by foliage application, plastic box (Table 20, symbol P); type: in vivo, common chickweed (Stellaria media); conditions: foliage application, AAH 320 g/ha, three weeks after application
Procedure, shortened: as §1

Row | SMILES | P: chickweed, herbicidal effect
13 | CCCC(=O)Oc1c(C)nn(C)c(=O)c1-c1c(-c2ccc3c(c2)OCCO3)sc2ccccc12 [1-090] | 4 (Herbicidal rate of 70% or more and less than 90%)
14 | COC(=O)Oc1c(C)nn(C)c(=O)c1-c1c(-c2ccc3c(c2)OCCO3)sc2ccccc12 [1-091] | 5 (Herbicidal rate of 90% or more (almost completely withered))

tested on: velvetleaf; assay: Test Example 5: herbicidal effect by foliage application, plastic box (Table 20, symbol M); type: in vivo, velvetleaf (Abutilon theophrasti); conditions: foliage application, AAH 320 g/ha, three weeks after application
Procedure, shortened: as §1

Row | SMILES | M: velvetleaf, herbicidal effect
15 | CCCC(=O)Oc1c(C)nn(C)c(=O)c1-c1c(-c2ccc3c(c2)OCCO3)sc2ccccc12 [1-090] | 4 (Herbicidal rate of 70% or more and less than 90%)
16 | COC(=O)Oc1c(C)nn(C)c(=O)c1-c1c(-c2ccc3c(c2)OCCO3)sc2ccccc12 [1-091] | 5 (Herbicidal rate of 90% or more (almost completely withered))

tested on: blackgrass; assay: Test Example 5: herbicidal effect by foliage application, plastic box (Table 20, symbol J); type: in vivo, blackgrass (Alopecurus myosuroides); conditions: foliage application, AAH 320 g/ha, three weeks after application
Procedure, shortened: as §1

Row | SMILES | J: blackgrass, herbicidal effect
17 | CCCC(=O)Oc1c(C)nn(C)c(=O)c1-c1c(-c2ccc3c(c2)OCCO3)sc2ccccc12 [1-090] | 2 (Herbicidal rate of 20% or more and less than 40%)
18 | COC(=O)Oc1c(C)nn(C)c(=O)c1-c1c(-c2ccc3c(c2)OCCO3)sc2ccccc12 [1-091] | 3 (Herbicidal rate of 40% or more and less than 70%)

tested on: oval-leafed pondweed; assay: Test Example 1: herbicidal activity, application before weed generation under submerged conditions (Table 16, symbol C); type: in vivo, oval-leafed pondweed (Monochoria vaginalis); conditions: 320 g/ha applied herbicide
Procedure, shortened: as §2

Row | SMILES | Herbicidal effect on C: oval-leafed pondweed (grade 0-5)
19 | CCCC(=O)Oc1c(C)nn(C)c(=O)c1-c1c(-c2ccc3c(c2)OCCO3)sc2ccccc12 [1-090] | 5 (Herbicidal rate of 90% or more (almost completely withered))
20 | COC(=O)Oc1c(C)nn(C)c(=O)c1-c1c(-c2ccc3c(c2)OCCO3)sc2ccccc12 [1-091] | 4 (Herbicidal rate of 70% or more and less than 90%)

tested on: wild oat; assay: Test Example 5: herbicidal effect by foliage application, plastic box (Table 20, symbol I); type: in vivo, wild oat (Avena fatua); conditions: foliage application, AAH 320 g/ha, three weeks after application
Procedure, shortened: as §1

Row | SMILES | I: wild oat, herbicidal effect
21 | CCCC(=O)Oc1c(C)nn(C)c(=O)c1-c1c(-c2ccc3c(c2)OCCO3)sc2ccccc12 [1-090] | 0 (Herbicidal rate of 5% or less (almost no effect))
22 | COC(=O)Oc1c(C)nn(C)c(=O)c1-c1c(-c2ccc3c(c2)OCCO3)sc2ccccc12 [1-091] | 2 (Herbicidal rate of 20% or more and less than 40%)

tested on: persian speedwell; assay: Test Example 4: herbicidal effect by soil treatment (Table 19, symbol R); type: in vivo, Persian speedwell (Veronica persica); conditions: amount of applied herbicide 320 g/ha
Procedure, shortened: as §3

Row | SMILES | herbicidal effect rating, R: persian speedwell
23 | CCCC(=O)Oc1c(C)nn(C)c(=O)c1-c1c(-c2ccc3c(c2)OCCO3)sc2ccccc12 [1-090] | 5 (Herbicidal rate of 90% or more (almost completely withered))
24 | COC(=O)Oc1c(C)nn(C)c(=O)c1-c1c(-c2ccc3c(c2)OCCO3)sc2ccccc12 [1-091] | 5 (Herbicidal rate of 90% or more (almost completely withered))

tested on: barnyard grass; assay: Test Example 5: herbicidal effect by foliage application, plastic box (Table 20, symbol H); type: in vivo, barnyard grass (Echinochloa crus-galli); conditions: foliage application, AAH 320 g/ha, three weeks after application
Procedure, shortened: as §1

Row | SMILES | H: barnyard grass, herbicidal effect
25 | CCCC(=O)Oc1c(C)nn(C)c(=O)c1-c1c(-c2ccc3c(c2)OCCO3)sc2ccccc12 [1-090] | 4 (Herbicidal rate of 70% or more and less than 90%)
26 | COC(=O)Oc1c(C)nn(C)c(=O)c1-c1c(-c2ccc3c(c2)OCCO3)sc2ccccc12 [1-091] | 5 (Herbicidal rate of 90% or more (almost completely withered))

tested on: barnyard grass; assay: Test Example 3: herbicidal effect by foliage application, Wagner pot (Table 18, symbol H); type: in vivo, barnyard grass (Echinochloa crus-galli); conditions: 320 g/ha
Procedure, shortened: as §4

Row | SMILES | herbicidal effect on H (barnyard grass), rating 0-5
27 | CCCC(=O)Oc1c(C)nn(C)c(=O)c1-c1c(-c2ccc3c(c2)OCCO3)sc2ccccc12 [1-090] | 5 (Herbicidal rate of 90% or more (almost completely withered))
28 | COC(=O)Oc1c(C)nn(C)c(=O)c1-c1c(-c2ccc3c(c2)OCCO3)sc2ccccc12 [1-091] | 5 (Herbicidal rate of 90% or more (almost completely withered))

tested on: late watergrass; assay: Test Example 1: herbicidal activity, application before weed generation under submerged conditions (Table 16, symbol A); type: in vivo, late watergrass (Echinochloa oryzicola); conditions: 320 g/ha applied herbicide
Procedure, shortened: as §2

Row | SMILES | Herbicidal effect on A: late watergrass (grade 0-5)
29 | CCCC(=O)Oc1c(C)nn(C)c(=O)c1-c1c(-c2ccc3c(c2)OCCO3)sc2ccccc12 [1-090] | 5 (Herbicidal rate of 90% or more (almost completely withered))
30 | COC(=O)Oc1c(C)nn(C)c(=O)c1-c1c(-c2ccc3c(c2)OCCO3)sc2ccccc12 [1-091] | 5 (Herbicidal rate of 90% or more (almost completely withered))

tested on: windgrass; assay: Test Example 5: herbicidal effect by foliage application, plastic box (Table 20, symbol L); type: in vivo, windgrass (Apera spica-venti); conditions: foliage application, AAH 320 g/ha, three weeks after application
Procedure, shortened: as §1

Row | SMILES | L: windgrass, herbicidal effect
31 | CCCC(=O)Oc1c(C)nn(C)c(=O)c1-c1c(-c2ccc3c(c2)OCCO3)sc2ccccc12 [1-090] | 0 (Herbicidal rate of 5% or less (almost no effect))
32 | COC(=O)Oc1c(C)nn(C)c(=O)c1-c1c(-c2ccc3c(c2)OCCO3)sc2ccccc12 [1-091] | 1 (Herbicidal rate of 5% or more and less than 20%)

tested on: rice flat sedge; assay: Test Example 3: herbicidal effect by foliage application, Wagner pot (Table 18, symbol E); type: in vivo, rice flat sedge (Cyperus iria); conditions: 320 g/ha
Procedure, shortened: as §4

Row | SMILES | herbicidal effect on E (rice flat sedge), rating 0-5
33 | CCCC(=O)Oc1c(C)nn(C)c(=O)c1-c1c(-c2ccc3c(c2)OCCO3)sc2ccccc12 [1-090] | 5 (Herbicidal rate of 90% or more (almost completely withered))
34 | COC(=O)Oc1c(C)nn(C)c(=O)c1-c1c(-c2ccc3c(c2)OCCO3)sc2ccccc12 [1-091] | 5 (Herbicidal rate of 90% or more (almost completely withered))

tested on: Italian ryegrass; assay: Test Example 4: herbicidal effect by soil treatment (Table 19, symbol K); type: in vivo, Italian ryegrass (Lolium multiflorum); conditions: amount of applied herbicide 320 g/ha
Procedure, shortened: as §3

Row | SMILES | herbicidal effect rating, K: Italian ryegrass
35 | CCCC(=O)Oc1c(C)nn(C)c(=O)c1-c1c(-c2ccc3c(c2)OCCO3)sc2ccccc12 [1-090] | 0 (Herbicidal rate of 5% or less (almost no effect))
36 | COC(=O)Oc1c(C)nn(C)c(=O)c1-c1c(-c2ccc3c(c2)OCCO3)sc2ccccc12 [1-091] | 0 (Herbicidal rate of 5% or less (almost no effect))

tested on: windgrass; assay: Test Example 4: herbicidal effect by soil treatment (Table 19, symbol L); type: in vivo, windgrass (Apera spica-venti); conditions: amount of applied herbicide 320 g/ha
Procedure, shortened: as §3

Row | SMILES | herbicidal effect rating, L: windgrass
37 | CCCC(=O)Oc1c(C)nn(C)c(=O)c1-c1c(-c2ccc3c(c2)OCCO3)sc2ccccc12 [1-090] | 0 (Herbicidal rate of 5% or less (almost no effect))
38 | COC(=O)Oc1c(C)nn(C)c(=O)c1-c1c(-c2ccc3c(c2)OCCO3)sc2ccccc12 [1-091] | 0 (Herbicidal rate of 5% or less (almost no effect))
